Reference: patent US11236087B2, “Highly active pyrazolo-piperidine substituted indole-2-carboxamides active against the hepatitis B virus (HBV)” (AiCuris GmbH & Co. KG, priority 2017, dated 2022)
Where two headings read alike, the source gives them in different places.

Legend:
HBV = test: Determination of HBV DNA from the supernatants of HepAD38 cells (anti-HBV activity); format: cell-based, hepatitis B virus; settings: Hepatitis B virus, read-out: Cell Activity (EC50)
Method in brief: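 Supernatant viral DNA was measured by LightCycler qPCR, calibrated with pCH-9/3091 plasmid, 6 days after tetracycline-free HepAD38 cultures received half-log serial compound dilutions; untreated and tetracycline-treated cells served as controls; EC50 was fitted by non-linear regression.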

[1] = Cell viability assay (AlamarBlue) in HepAD38 cells; settings: human
HBV core protein = biological target: T1, HBV core protein (UniProt P03146); test: Biochemical capsid assembly assay (fluorescence quenching); parameters: species or system hepatitis B virus; settings: read-out: Assembly Activity (IC50); BODIPY-FL labelled core protein, 300 μM NaCl, read 6 min after start
T1 construct: fused on or other part: BODIPY-FL maleimide label on the C-terminal Cys150
T1 sequence (P03146 whole entry, looked up, the tested form may be a part): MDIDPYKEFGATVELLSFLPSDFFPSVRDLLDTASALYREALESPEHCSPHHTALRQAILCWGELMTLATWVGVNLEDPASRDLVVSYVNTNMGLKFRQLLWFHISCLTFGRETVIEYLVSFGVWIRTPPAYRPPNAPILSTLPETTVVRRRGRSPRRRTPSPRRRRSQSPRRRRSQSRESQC
Method in brief: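 Assembly-induced fluorescence quenching (477/525 nm) was measured 6 min after NaCl addition ([…]), against 2.5 M and 0 M NaCl controls. The labelled C150 core dimer (truncated at 149) at 1.0-2.0 μM in HEPES pH 7.5 was tested with eight half-log compound dilutions, top 100, 31.6 or 10 μM. EC50 was obtained by non-linear fit from triplicates run three times.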

[2] = 144 h, HBV DNA in HepAD38 supernatant, day 6, qPCR

Row | SMILES | EC50 (HBV; HePAD38, 144 h) [µM] | CC50 at 6 days [1] [µM] | IC50 (HBV core protein) [µM] | EC50 (HBV; [2]) [µM]
1 | CC(C)OC(=O)[C@H](C)NP(=O)(OCCON(C)C(=O)c1n[nH]c2c1CN(C(=O)c1cc3ccccc3[nH]1)CC2)Oc1ccccc1 (stereo partly drawn) [Example 64, propan-2-yl (2S)-2-({[2-({1-[5-(1H-indole-2-carbonyl)-1H,4H,5H,6H,7H-pyrazolo[4,3-c]pyridin-3-yl]-N-methylformamido}oxy)ethoxy](phenoxy)phosphoryl}amino)propanoate] | < 1 | > 32 | < 5 | –
2 | CC(C)OC(=O)[C@H](C)NP(=O)(OCCCN(C)C(=O)c1n[nH]c2c1CN(C(=O)c1cc3c(Cl)cccc3[nH]1)CC2)Oc1ccccc1 (stereo partly drawn) [Example 66, propan-2-yl (2S)-2-{[(3-{1-[5-(4-chloro-1H-indole-2-carbonyl)-1H,4H,5H,6H,7H-pyrazolo[4,3-c]pyridin-3-yl]-N-methylformamido}propoxy)(phenoxy)phosphoryl]amino}propanoate] | < 1 | > 32 | < 5 | –
3 | CC(C)OC(=O)[C@H](C)NP(=O)(OCCN(C)C(=O)c1n[nH]c2c1CN(C(=O)c1cc3c(Cl)cccc3[nH]1)CC2)Oc1ccccc1 (stereo partly drawn) [Example 67, propan-2-yl (2S)-2-{[(2-{1-[5-(4-chloro-1H-indole-2-carbonyl)-1H,4H,5H,6H,7H-pyrazolo[4,3-c]pyridin-3-yl]-N-methylformamido}ethoxy)(phenoxy)phosphoryl]amino}propanoate] | < 1 | > 32 | < 5 | –
4 | CC(C)OC(=O)[C@H](C)NP(=O)(OCCCN(C)C(=O)c1n[nH]c2c1CN(C(=O)c1cc3ccccc3[nH]1)CC2)Oc1ccccc1 (stereo partly drawn) [Example 70, propan-2-yl (2S)-2-{[(3-{1-[5-(1H-indole-2-carbonyl)-1H,4H,5H,6H,7H-pyrazolo[4,3-c]pyridin-3-yl]-N-methylformamido}propoxy)(phenoxy)phosphoryl]amino}propanoate] | 1 to 25 | > 32 | < 5 | –
5 | CC(C)OC(=O)[C@H](C)NP(=O)(OCCN(C)C(=O)c1n[nH]c2c1CN(C(=O)c1cc3ccccc3[nH]1)CC2)Oc1ccccc1 (stereo partly drawn) [Example 71, propan-2-yl (2S)-2-{[(2-{1-[5-(1H-indole-2-carbonyl)-1H,4H,5H,6H,7H-pyrazolo[4,3-c]pyridin-3-yl]-N-methylformamido}ethoxy)(phenoxy)phosphoryl]amino}propanoate] | 1 to 25 | > 32 | 5 to 10 | –
6 | CN(c1n[nH]c2c1CN(C(=O)c1cc3ccccc3[nH]1)CC2)S(C)(=O)=O [Example 74, N-[5-(1H-indole-2-carbonyl)-1H,4H,5H,6H,7H-pyrazolo[4,3-c]pyridin-3-yl]-N-methylmethanesulfonamide] | – | > 100 | < 100 | 1 to 25
7 | CN(C)c1n[nH]c2c1CN(C(=O)c1cc3ccccc3[nH]1)CC2 [Example 75, 5-(1H-indole-2-carbonyl)-N,N-dimethyl-1H,4H,5H,6H,7H-pyrazolo[4,3-c]pyridin-3-amine] | – | > 100 | 5 to 10 | < 1
8 | O=C(c1cc2ccccc2[nH]1)N1CCc2[nH]nc(NCC3CC3)c2C1 [Example 79, N-(cyclopropylmethyl)-5-(1H-indole-2-carbonyl)-1H,4H,5H,6H,7H-pyrazolo[4,3-c]pyridin-3-amine] | – | > 100 | 5 to 10 | 1 to 25
9 | CCNc1n[nH]c2c1CN(C(=O)c1cc3ccccc3[nH]1)CC2 [Example 80, N-ethyl-5-(1H-indole-2-carbonyl)-1H,4H,5H,6H,7H-pyrazolo[4,3-c]pyridin-3-amine] | – | > 100 | < 100 | 1 to 25
10 | O=C(c1cc2ccccc2[nH]1)N1CCc2[nH]nc(NCC3CCOCC3)c2C1 [Example 81, 5-(1H-indole-2-carbonyl)-N-[(oxan-4-yl)methyl]-1H,4H,5H,6H,7H-pyrazolo[4,3-c]pyridin-3-amine] | – | > 100 | < 100 | 1 to 25
11 | CS(=O)(=O)Nc1n[nH]c2c1CN(C(=O)c1cc3ccccc3[nH]1)CC2 [Example 82, N-[5-(1H-indole-2-carbonyl)-1H,4H,5H,6H,7H-pyrazolo[4,3-c]pyridin-3-yl]methanesulfonamide] | – | > 100 | < 100 | < 100
12 | CN(CC1CCOCC1)C(=O)c1n[nH]c2c1CN(C(=O)c1cc3ccccc3[nH]1)CC2 [Example 85, 5-(1H-indole-2-carbonyl)-N-methyl-N-[(oxan-4-yl)methyl]-1H,4H,5H,6H,7H-pyrazolo[4,3-c]pyridine-3-carboxamide] | – | > 100 | < 100 | 1 to 25
13 | O=C(c1cc2ccccc2[nH]1)N1CCc2[nH]nc(NCc3ccccc3)c2C1 [Example 91, N-benzyl-5-(1H-indole-2-carbonyl)-1H,4H,5H,6H,7H-pyrazolo[4,3-c]pyridin-3-amine] | – | > 100 | 5 to 10 | 1 to 25
14 | CN(CC1CCOC1)C(=O)c1n[nH]c2c1CN(C(=O)c1cc3ccccc3[nH]1)CC2 (stereo not drawn) [Example 95, 5-(1H-indole-2-carbonyl)-N-methyl-N-[(oxolan-3-yl)methyl]-1H,4H,5H,6H,7H-pyrazolo[4,3-c]pyridine-3-carboxamide] | – | > 100 | < 100 | 1 to 25
15 | O=C(NCC1CCOC1)c1n[nH]c2c1CN(C(=O)c1cc3ccccc3[nH]1)CC2 (stereo not drawn) [Example 96, 5-(1H-indole-2-carbonyl)-N-[(oxolan-3-yl)methyl]-1H,4H,5H,6H,7H-pyrazolo[4,3-c]pyridine-3-carboxamide] | – | > 100 | < 100 | 1 to 25
16 | CN(CC1CCCO1)C(=O)c1n[nH]c2c1CN(C(=O)c1cc3ccccc3[nH]1)CC2 (stereo not drawn) [Example 97, 5-(1H-indole-2-carbonyl)-N-methyl-N-[(oxolan-2-yl)methyl]-1H,4H,5H,6H,7H-pyrazolo[4,3-c]pyridine-3-carboxamide] | – | > 100 | 5 to 10 | < 1
17 | CN1CCN(C(=O)c2n[nH]c3c2CN(C(=O)c2cc4ccccc4[nH]2)CC3)CC1 [Example 98, 2-[3-(4-methylpiperazine-1-carbonyl)-1H,4H,5H,6H,7H-pyrazolo[4,3-c]pyridine-5-carbonyl]-1H-indole] | – | > 32 | < 100 | 1 to 25
18 | O=C(c1cc2ccccc2[nH]1)N1CCc2[nH]nc(C(=O)N3CCCC3)c2C1 [Example 99, 2-[3-(pyrrolidine-1-carbonyl)-1H,4H,5H,6H,7H-pyrazolo[4,3-c]pyridine-5-carbonyl]-1H-indole] | – | > 100 | 5 to 10 | 1 to 25
19 | CN(CCO)C(=O)c1n[nH]c2c1CN(C(=O)c1cc3ccccc3[nH]1)CC2 [Example 100, N-(2-hydroxyethyl)-5-(1H-indole-2-carbonyl)-N-methyl-1H,4H,5H,6H,7H-pyrazolo[4,3-c]pyridine-3-carboxamide] | – | > 100 | < 5 | < 1
20 | CS(=O)(=O)CCNC(=O)c1n[nH]c2c1CN(C(=O)c1cc3ccccc3[nH]1)CC2 [Example 101, 5-(1H-indole-2-carbonyl)-N-(2-methanesulfonylethyl)-1H,4H,5H,6H7H-pyrazolo[4,3-c]pyridine-3-carboxamide] | – | > 100 | < 100 | < 100
21 | CN(CCCO)C(=O)c1n[nH]c2c1CN(C(=O)c1cc3ccccc3[nH]1)CC2 [Example 102, N-(3-hydroxypropyl)-5-(1H-indole-2-carbonyl)-N-methyl-1H,4H,5H,6H,7H-pyrazolo[4,3-c]pyridine-3-carboxamide] | – | > 100 | < 5 | < 1
22 | CCN(C)C(=O)c1n[nH]c2c1CN(C(=O)c1cc3ccccc3[nH]1)CC2 [Example 103, N-ethyl-5-(1H-indole-2-carbonyl)-N-methyl-1H,4H,5H,6H,7H-pyrazolo[4,3-c]pyridine-3-carboxamide] | – | > 100 | < 5 | < 1
23 | COCCNC(=O)c1n[nH]c2c1CN(C(=O)c1cc3ccccc3[nH]1)CC2 [Example 104, 5-(1H-indole-2-carbonyl)-N-(2-methoxyethyl)-1H,4H,5H,6H,7H-pyrazolo[4,3-c]pyridine-3-carboxamide] | – | > 100 | < 100 | 1 to 25
24 | O=C(NCCCO)c1n[nH]c2c1CN(C(=O)c1cc3ccccc3[nH]1)CC2 [Example 105, N-(3-hydroxypropyl)-5-(1H-indole-2-carbonyl)-1H,4H,5H,6H,7H-pyrazolo[4,3-c]pyridine-3-carboxamide] | – | > 100 | < 100 | 1 to 25
25 | NC(=O)c1n[nH]c2c1CN(C(=O)c1cc3ccccc3[nH]1)CC2 [Example 106, 5-(1H-indole-2-carbonyl)-1H,4H,5H,6H,7H-pyrazolo[4,3-c]pyridine-3-carboxamide] | – | > 100 | < 100 | < 100
26 | O=C(NCCO)c1n[nH]c2c1CN(C(=O)c1cc3ccccc3[nH]1)CC2 [Example 107, N-(2-hydroxyethyl)-5-(1H-indole-2-carbonyl)-1H,4H,5H,6H,7H-pyrazolo[4,3-c]pyridine-3-carboxamide] | – | > 100 | < 100 | 1 to 25
